# In publication PMC9830638, “High-Contrast Detection of Somatostatin Receptor Subtype-2 for Fluorescence-Guided Surgery” (Molecular Pharmaceutics, 2022):
# Tested on: orthotopically implanted BON–SSTR2 tumors
# Experiment: Simulated clinical workflow, PET/CT imaging in orthotopic BON–SSTR2 tumor model
# Format: in vivo, mice
# Conditions: orthotopic BON–SSTR2, 7.4 MBq (0.5 nmol), 1 h after injection, n = 5
# Protocol: Mice bearing orthotopically implanted BON–SSTR2 tumors (n = 5) were injected with 7.4 MBq (200 μCi; 0.5 nmol) of ^68Ga-DOTA-TOC and underwent PET/computed tomography (CT) imaging (Albira small animal PET/CT scanner, Bruker) 1 h after injection. […] After euthanasia, tumors were harvested under white light, and the wound bed was re-imaged with NIRF. After a more thorough visual inspection of the wound bed under white light, suspicious lesions were identified and harvested with the intact organ for ex vivo imaging along with other tissues of interest. Tumors, suspicious lesions, and relevant non-tumor tissues were processed for immunohistopathological and mesoscopic imaging.
# For CFT two-dimensional (2D) and three-dimensional (3D) reconstruction, 2D images were obtained from individual slices, and an image stack was generated to produce 3D data sets. For PET/CT imaging, region-of-interest analysis was done with Integrated PMOD software (PMOD technologies) to standardize uptake values and determine TBRs.
substance,measurement,value
"1,4,7,10-tetraazacyclododecane-1,4,7,10-tetraacetic acid-Tyr^3-octreotide [68Ga-DOTA-TOC]",mice with abnormal uptake in the abdomen (PET/CT),4 out of 5
